Experimental data taken from article PMC7432838, “A Curcumin Analog Exhibits Multiple Biologic Effects on the Pathogenesis of Alzheimer’s Disease and Improves Behavior, Inflammation, and β-Amyloid Accumulation in a Mouse Model” (International Journal of Molecular Sciences, 2020).
“And” between values parts separate entries of the source, which are not always exact repeats. Equal values may be shown once.

Assays:
[1] = Water solubility (preformulation, preliminary studies); type: physicochemical; conditions: water, unformulated
Experimental: The active pharmaceutical ingredients of TML-6 were synthesized and physico-chemical properties were characterized by SinoPharm Pharmaceutical Company (SPT), Tainan, Taiwan. Preformulation studies on the solubility of TML-6 were conducted by Value Pharmaceutical Services (VPS) Company, Jiansu, China. All the data in this study were conducted using unformulated TML-6. Formulation to optimize the solubility and permeability of TML-6 is under development for toxicological studies.

[2] = Brain penetration study in AD transgenic mice after oral dosing; type: in vivo, mouse; conditions: oral dose of 150 mg/kg
[3] = Brain penetration study in normal mice after oral dosing; type: in vivo; conditions: oral dose of 150 mg/kg, normal mouse brain
[4] = Cytotoxicity assay by Cell Counting Kit-8 (CCK-8); type: cell-based, human; conditions: human, Huh-7 cells; Huh-7, 24 h
Experimental: (§1) The cytotoxicity assay was performed using the Cell Counting Kit-8 (CCK-8, Sigma). We dissolved 0.0524 g of TML-6 (molecular weight is 523.62 g/mol) in 10 mL DMSO to obtain TML-6 stock at 10 mM for cell line study. […] Briefly, Huh-7 cells were seeded overnight in 96-well plates at 5000 cells/well and then subjected to traditional curcumin or TML-6 treatment for 24 h. At each time point, a CCK-8 solution (0.25 mg/mL) was added to the medium in each well for an additional 4 h incubation, and absorbance was measured at 570 nm using an ELISA reader.

[5] = test system: Huh-7 cells; assay: Cytotoxicity assay by Cell Counting Kit-8 (CCK-8); type: cell-based, human; conditions: Huh-7, 24 h, concentrations below 5 μM (2.61 µg/mL)
Experimental: as §1

[6] = test system: Nrf2 promoter in Huh-7 cells; assay: Nrf2 promoter Dual-Luciferase reporter assay; type: cell-based, human
Experimental: To examine the activities of the anti-oxidative gene NrF2, Huh-7 cells were seeded in 24-well culture plates and then co-transfected with serial dilution of pG5-Nrf2-Luc (firefly luciferase) with the pRL-TK Renilla luciferase reporter. Following overnight incubation, the transfected cells were treated with traditional curcumin and TML-6 compounds for additional 24 h. The luciferase reporter assay was performed using the Dual-Luciferase Reporter assay system (Promega, Madison, WI, USA). The cell lysates were assayed for both firefly and Renilla luciferase activities. The relative luciferase units (RLU) were measured using a luminometer (GLOMAX Multi, Promega). Firefly luciferase activity was normalized for transfection efficiency using the Renilla luciferase activity in each lysate as the control. The RLUs are expressed as means plus standard deviation of three independent experiments.

[7] = test system: APP (amyloid precursor protein) in Huh-7 cells; assay: Western blotting of APP protein expression; type: cell-based, human; conditions: 1.96 µg/mL, 24 h, vs medium control
Experimental: (§2) After cells were seeded and treated with curcumin and TML-6 for 24 h, cells were washed with ice-cold PBS (Phosphate Buffered Saline) and lysed with 100 μL of RIPA cell lysis buffer (Pierce Biotechnology, Rockford, IL, USA) supplemented with protease and phosphatase inhibitors (Roche Diagnostics, Mannheim, Germany). Cell lysates were further cleaned by centrifugation at 14,000 rpm at 4 °C for 15 min. Protein concentration was determined using a Bradford assay (Bio-Rad, Hercules, CA, USA). For Western blot analysis, 20 μg of each sample was prepared for SDS-PAGE (SDS Poly-acrylamide-gel-electrophoresis) and denatured at 95 ℃ for 10 min. The samples prepared from total lysates were loaded and separated by SDS-PAGE (8% or 10%), and then transferred to PVDF membranes (pore size 0.45 μm; PerkinElmer, Waltham, MA, USA) by semi-dry transfer cell (Bio-Rad). After blocking with 5% skim milk in PBS-T (0.1% Tween-20), the membranes were hybridized with primary antibodies at 1/1000 dilution at 4 °C overnight. On the next day, membranes were washed with PBS-T followed by incubation with HRP-conjugated anti-mouse or anti-rabbit secondary antibody (DAKO, Santa Clara, CA, USA) at 1/5000 dilution at room temperature for 1 h as appropriate. […]

[8] = test system: phospho-NF-κB in Huh-7 cells; assay: Western blotting of phosphorylated NF-κB; type: cell-based, human; conditions: 1.96 µg/mL, 24 h, vs medium control
Experimental: as §2

[9] = test system: Apo E in Huh-7 cells; assay: Western blotting of ApoE protein expression; type: cell-based, human; conditions: 2.62 µg/mL, 24 h, vs medium and curcumin control
Experimental: as §2

[10] = test system: phospho-mTOR in Huh-7 cells; assay: Western blotting of phospho-mTOR; type: cell-based, human
Experimental: After cells were seeded and treated with curcumin and TML-6 for 24 h, cells were washed with ice-cold PBS (Phosphate Buffered Saline) and lysed with 100 μL of RIPA cell lysis buffer (Pierce Biotechnology, Rockford, IL, USA) supplemented with protease and phosphatase inhibitors (Roche Diagnostics, Mannheim, Germany). Cell lysates were further cleaned by centrifugation at 14,000 rpm at 4 °C for 15 min. Protein concentration was determined using a Bradford assay (Bio-Rad, Hercules, CA, USA). For Western blot analysis, 20 μg of each sample was prepared for SDS-PAGE (SDS Poly-acrylamide-gel-electrophoresis) and denatured at 95 ℃ for 10 min. The samples prepared from total lysates were loaded and separated by SDS-PAGE (8% or 10%), and then transferred to PVDF membranes (pore size 0.45 μm; PerkinElmer, Waltham, MA, USA) by semi-dry transfer cell (Bio-Rad). After blocking with 5% skim milk in PBS-T (0.1% Tween-20), the membranes were hybridized with primary antibodies at 1/1000 dilution at 4 °C overnight. On the next day, membranes were washed with PBS-T followed by incubation with HRP-conjugated anti-mouse or anti-rabbit secondary antibody (DAKO, Santa Clara, CA, USA) at 1/5000 dilution at room temperature for 1 h as appropriate. Finally, the images were captured by Amersham Imager 600 (GE Healthcare Life Sciences, Marlborough, MA, USA) after being developed using the chemiluminescent HRP substrate (Millipore, Bedford, MA, USA). The primary antibodies used in this study were anti-APP, anti-NF-κB (Cell Signaling Technology, Danvers, MA, USA), anti-Apo E, anti-p-mTOR (Abcam, Cambridge, MA, USA).

[11] = test system: Aβ40 production in N2a/APPswe stable cells; assay: Aβ40 ELISA of culture medium; type: cell-based, mouse; conditions: 3.14 µg/mL, 24 h, culture medium
Experimental: (§3) Extracellular levels of soluble Aβ40 and Aβ42 were determined by LEGEND MAX™ β-Amyloid x-40 and X-42 ELISA Kit (Biolegend, San Diego, CA, USA). Overexpression of the APP Swedish mutation (APPswe) in the N2a neuronblastoma cell line was called the N2a/APPswe cell line. N2a/APPswe stable cells were seeded at 8 × 10^5 cells in 6 cm dishes. After overnight incubation, the cells were treated with curcumin and TML-6 for 24 h. […] The culture supernatant was collected and centrifuged at 1500× g at 4 °C for 5 min to remove cells. The culture supernatants from various treatments were conducted to examine the Aβ levels according to the manufacturer’s instructions. The samples for the detection of soluble Aβ levels were diluted in the supernatant at a 1:10 dilution for this experiment. Levels of soluble Aβ were detected by measuring the OD at 620 nm (Molecular Devices, San Jose, CA, USA). The calculation of Aβ levels was based on the standard curves of Aβ40 and Aβ42, respectively.

[12] = test system: Aβ42 production in N2a/APPswe stable cells; assay: Aβ42 ELISA of culture medium; type: cell-based, mouse; conditions: 3.14 µg/mL, 24 h, culture medium
Experimental: as §3

[13] = test system: N2a/APPswe stable cells; assay: Cell viability/morphology by micrographs during Aβ ELISA treatment; type: cell-based, mouse; conditions: 24 h
Experimental: as §3

[14] = test system: 3xTg AD transgenic mice; assay: Morris water maze test in 3xTg AD transgenic mice; type: in vivo, mouse; conditions: 150 mg/kg/day in diet for four months; six-month-old 3xTg AD mice; vs vehicle control
Experimental: (§4) The triplex transgenic mouse model (3xTg-AD, APP Swedish, MAPT P301L, and PSEN1 M146V) was adopted as the AD model and bred at the laboratory animal center of National Cheng Kung University (NCKU), Tainan, Taiwan. The mice were housed in a room maintained on a 12 h light–dark cycle and fed ad libitum. Six-month old 3xTg-AD mice were used for animal experiments. Experimental procedures for handling the mice were in accordance with the guidelines of the Institutional Animal Care and Use Committee (IACUC) of NCKU. These mice develop plaques and tangles pathology. Aβ deposition is progressive, and deposition appears as early as nine months for triplex-Tg mice. The AD transgenic mice were fed with the control diet (Laboratory Rodent Diet 5001, LabDiet, St. Louis, MO, USA), the control diet plus traditional curcumin (150 mg/kg), or the control diet plus TML-6 (150 mg/kg) for four months. Diets were stored at 4 °C and were added to mouse cage twice a week. The quantity of the diet consumed by the mice was determined daily. The concentration of curcumin and TML-6 in the diet was determined to be around 1.20 mg/g of diet after assaying by HPLC by the Development Center for the Biotechnology (DCB), Taipei, Taiwan.
For assessing spatial learning and memory, the Morris water maze was used as we described before. […] The time taken to reach the platform was recorded as escape latency.

[15] = test system: Aβ in 3xTg AD mouse brain; assay: Immunofluorescence staining of Aβ in brain of 3xTg AD mice; type: in vivo; conditions: 150 mg/kg/day in diet for four months
Experimental: as §4, with “The AD transgenic mice were fed with the control diet (Laboratory Rodent Diet 5001, LabDiet, St. Louis, MO, USA), the control diet plus traditional curcumin (150 mg/kg), or the control diet plus TML-6 (150 mg/kg) for four months. Diets were stored at 4 °C and were added to mouse cage twice a week.” left out
(§5) Mice were anesthetized using pentobarbital (60 mg/kg, intravenous) and then transcardial perfusion was performed with 0.01 M PBS (pH 7.4). […] Images were captured by the TissureFAXS microscopy system and positive signals were quantified by TissueQuest software module (TissueGnostic, Vienne, Austria).

[16] = test system: Iba-1 (microglial activation marker) in 3xTg AD mouse hippocampus; assay: Immunofluorescence staining of Iba-1 in brain of 3xTg AD mice; type: in vivo; conditions: 150 mg/kg/day in diet for four months
Experimental: as §4, with “The AD transgenic mice were fed with the control diet (Laboratory Rodent Diet 5001, LabDiet, St. Louis, MO, USA), the control diet plus traditional curcumin (150 mg/kg), or the control diet plus TML-6 (150 mg/kg) for four months. Diets were stored at 4 °C and were added to mouse cage twice a week.” left out
as §5

[17] = Pharmacokinetic study after oral administration in SD rats; type: in vivo, rat; conditions: male, Sprague-Dawley, rat, in vivo, po, 150 mg/kg
Experimental: In order to evaluate the bioavailability of curcumin and its analog TML-6, pharmacokinetic studies were commissioned and conducted by the Development Center for Biotechnology (DCB, Taipei, Taiwan). The kinetics of curcumin and TML-6 in blood were collected at 0.25, 0.5, 1, 2, 4, 6, 8 and 10 h after oral administration of curcumin and TML-6 at the dose of 150 mg/kg in male Sprague–Dawley Rats.

[18] = test system: rat; assay: Preliminary toxicological experiments in the rat model; type: in vivo; conditions: preliminary data

Q: Which results are given for `CCN(CC)C(=O)CC(C)(C(=O)/C=C/c1ccc(OC)c(OC)c1)C(=O)/C=C/c1ccc(OC)c(OC)c1` [TML-6]?
A: solubility [1]: < 100 µg/mL; Kp ([2]; brain relative to plasma, AD transgenic mouse, read-out: brain level as % of the plasma pK levels): 0.1; level detected in brain ([2]; AD transgenic mouse brain, preliminary): 3 ng/mL; detection in brain [3]: could not be detected; IC50 at 24 h [4]: 4.19 µg/mL and 8 µM; cytotoxicity (CCK-8) [5]: no cytotoxicity; concentration of highest Nrf2 transcriptional activation ([6]; Huh-7, 24 h, luciferase reporter): 1.32 µg/mL; concentration beyond which cytotoxicity was found in Nrf2 promoter-transfected cells ([6]; Huh-7 transiently transfected with Nrf2 promoter): > 5240 ng/mL; Nrf2 promoter activity, fold stronger than traditional curcumin at 10 µg/mL ([6]; TML-6 at 1.32 µg/mL vs curcumin 10 µg/mL, Huh-7, 24 h): 12.1 fold; Nrf2 promoter activity, fold stronger than traditional curcumin at 20 µg/mL ([6]; TML-6 at 1.32 µg/mL vs curcumin 20 µg/mL, Huh-7, 24 h): 6.6 fold; reduction of APP protein expression level [7]: 60%; decrease of phosphorylated NF-κB level [8]: about 50%; induction of ApoE protein expression level [9]: approximately 44%; phospho-mTOR suppression (Western blot, in words) ([10]; Huh-7, 24 h): suppressed in all the concentrations; potency of phospho-mTOR reduction relative to curcumin ([10]; TML-6 5.24 µg/mL gives same level as curcumin 20 µg/mL): about 4 fold; average reduction of phospho-mTOR ([10]; dose below IC50 (0.65~3.93 µg/mL), 24 h): about 30%; Aβ40 level, reduced to % as compared with control group [11]: approximately 86%; Aβ42 level, reduced to % as compared with control group [12]: ~80%; highest dose, at which cytotoxicity was seen (micrographs) [13]: 4.19 µg/mL; learning behavior in Morris water maze (in words) [14]: significantly improved hippocampus-dependent learning behavior; reduction of Aβ expression in brain vs vehicle control [15]: 51%; suppression of Iba-1 expression in hippocampus vs vehicle control [16]: 50%; Cmax [17]: 35.9 ± 15.6 ng/mL; MRT [17]: 3.91 ± 0.62 h; Tmax [17]: 3.67 ± 2.08 h; half-life [17]: 1.27 ± 0.51 h; AUC(0-t) ([17]; AUC(0-8)): 181 ± 78.7 ng·h/mL; AUC(0-t) ([17]; AUC(0-last)): 177 ± 76.8 ng·h/mL; toxicity in the rat model (in words) [18]: no obvious toxicity
